# Source: patent JPH07291935A, “スピロ化合物、その製造法および剤” (Takeda Chemical Industries Ltd, priority 1994, dated 1995)
# Where two headings read alike, the source gives them in different places.
# How the values were obtained:
# [1] = system: norepinephrine (NE) uptake [ノルエピネフリン(NE)の取り込み]; assay: norepinephrine (NE) uptake inhibition; type: biochemical; details: rat cerebral cortex, 3H-NE as substrate
# [2] = system: 45Ca2+ uptake [45Ca2+取り込み]; assay: 45Ca2+ uptake inhibition (veratrine-stimulated); type: biochemical; details: 10 μM; rat cerebral cortex crude synaptosomes; veratrine 30 μM; 37℃, 10 min
# [3] = system: serotonin (5-HT) uptake [セロトニン(5−HT)の取り込み]; assay: serotonin (5-HT) uptake inhibition; type: biochemical; details: rat whole brain preparation, 3H-5-HT 10 nM, 37℃, 5 min
# [4] = target: T1, type B monoamine oxidase (MAO-B) [B型モノアミン酸化酵素(MAO−B)] (Rattus norvegicus, UniProt P19643); assay: biochemical
# T1 sequence (P19643 1-520): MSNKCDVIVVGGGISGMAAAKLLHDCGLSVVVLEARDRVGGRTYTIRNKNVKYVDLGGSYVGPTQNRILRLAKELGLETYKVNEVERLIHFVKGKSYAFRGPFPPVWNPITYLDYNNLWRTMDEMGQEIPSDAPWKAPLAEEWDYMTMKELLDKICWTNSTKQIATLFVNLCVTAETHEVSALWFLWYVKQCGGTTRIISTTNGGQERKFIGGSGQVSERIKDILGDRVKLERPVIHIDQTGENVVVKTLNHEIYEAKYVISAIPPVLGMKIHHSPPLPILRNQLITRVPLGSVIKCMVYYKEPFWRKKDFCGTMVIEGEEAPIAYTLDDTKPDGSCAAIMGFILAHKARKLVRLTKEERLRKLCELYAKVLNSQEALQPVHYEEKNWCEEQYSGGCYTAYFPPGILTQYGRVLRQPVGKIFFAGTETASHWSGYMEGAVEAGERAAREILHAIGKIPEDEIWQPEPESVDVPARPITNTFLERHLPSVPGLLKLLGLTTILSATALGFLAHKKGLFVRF
# [5] = MAO-B, rat whole brain homogenate, 14C-phenylethylamine 10 μM, 37℃, 5 min, read-out: IC50
SMILES,IC50 [1],% inhibition rate (45Ca uptake) [2],IC50 [3],"IC50 [4, 5]",IC50 [4]
"COc1ccc2c(c1)CCC1(CCCCN1CCCC1CCN(Cc3ccccc3)CC1)C2 (centres unmarked) [実施例5−14, 3,4−ジヒドロ−6−メトキシ−1′−〔3−(1−フェニルメチルピペリジン−4−イル)プロピル〕スピロ〔ナフタレン−2(1H),2′−ピペリジン〕 2塩酸塩]",0.18 µM,74%,0.011 µM,–,–
"CCCN1CCCCC12CCc1cc(OCc3ccc(F)cc3)ccc1C2 (centres unmarked) [実施例9−21, 6−(4−フルオロフェニルメトキシ)−3,4−ジヒドロ−1′−プロピルスピロ〔ナフタレン−2(1H),2′−ピペリジン〕 塩酸塩]",0.097 µM,–,0.34 µM,0.68 µM,–
"CCCN1CCCCC12CCc1cc(OCc3cccc(Cl)c3)ccc1C2 (centres unmarked) [実施例9−7, 6−(3−クロロフェニルメトキシ)−3,4−ジヒドロ−1′−プロピルスピロ〔ナフタレン−2(1H),2′−ピペリジン〕 塩酸塩]",0.059 µM,–,0.7 µM,1.63 µM,–
"COc1ccc2c(c1)CCC1(CCCCN1CCN1CCN(c3cccc(C(F)(F)F)c3)CC1)C2 (centres unmarked) [実施例7−6, 1′−〔2−(4−(3−トリフルオロメチルフェニル)ピペラジン−1−イル)エチル〕−3,4−ジヒドロ−6−メトキシスピロ〔ナフタレン−2(1H),2′−ピペリジン〕 2塩酸塩]",–,106%,–,–,–
"CCCN1CCCCC12CCc1cc(OCc3ccccc3C)ccc1C2 (centres unmarked) [実施例9−18, 3,4−ジヒドロ−6−(2−メチルフェニルメトキシ)−1′−プロピルスピロ〔ナフタレン−2(1H),2′−ピペリジン〕 塩酸塩]",–,–,–,1.49 µM,–
"COc1ccc2c(c1)CCC1(CCCCN1CCN1CCN(c3ccccc3Cl)CC1)C2 (centres unmarked) [実施例7−3, 1′−〔2−(4−(2−クロロフェニル)ピペラジン−1−イル)エチル〕−3,4−ジヒドロ−6−メトキシスピロ〔ナフタレン−2(1H),2′−ピペリジン〕 2塩酸塩]",–,95%,–,–,–
"COc1cccc(N2CCN(CCN3CCCCC34CCc3cc(OC)ccc3C4)CC2)c1 (centres unmarked) [実施例7−1, 3,4−ジヒドロ−6−メトキシ−1’−〔2−(4−(3−メトキシフェニル)ピペラジン−1−イル)エチル〕スピロ〔ナフタレン−2(1H),2’−ピペリジン〕 2塩酸塩]",4.77 µM,90%,0.022 µM,–,–
"CCCN1CCCCC12CCc1cc(OCc3ccccc3C#N)ccc1C2 (centres unmarked) [実施例9−20, 6−(2−シアノフェニルメトキシ)−3,4−ジヒドロ−1′−プロピルスピロ〔ナフタレン−2(1H),2′−ピペリジン〕 塩酸塩]",0.054 µM,–,0.32 µM,–,–
"CCCN1CCCCC12CCc1cc(OCc3ccccc3)ccc1C2 (centres unmarked) [実施例9−1, 3,4−ジヒドロ−6−フェニルメトキシ−1’−プロピルスピロ〔ナフタレン−2(1H),2’−ピペリジン〕 塩酸塩]",–,–,–,0.28 µM,–
"COc1ccc2c(c1)CCC1(CCCCN1CCCc1ccccc1)C2 (centres unmarked) [実施例5−9, 3,4−ジヒドロ−6−メトキシ−1′−(3−フェニルプロピル)スピロ〔ナフタレン−2(1H),2′−ピペリジン〕 塩酸塩]",–,92%,–,–,–
"COc1ccc2c(c1)CCC1(CCCCN1CCN1CCN(c3ccc(F)cc3)CC1)C2 (centres unmarked) [実施例7−5, 1′−〔2−(4−(4−フルオロフェニル)ピペラジン−1−イル)エチル〕−3,4−ジヒドロ−6−メトキシスピロ〔ナフタレン−2(1H),2′−ピペリジン〕 2塩酸塩]",3.35 µM,87%,0.03 µM,–,–
"COc1ccc2c(c1)CCC1(CCCCN1CCN1CCC(c3ccccc3)CC1)C2 (centres unmarked) [実施例7−9, 3,4−ジヒドロ−6−メトキシ−1′−〔2−(4−フェニルピペリジン−1−イル)エチル〕スピロ〔ナフタレン−2(1H),2′−ピペリジン〕 2塩酸塩]",–,109%,–,–,–
"CCCN1CCCCC12CCc1cc(OCc3ccc(Cl)cc3Cl)ccc1C2 (centres unmarked) [実施例9−22, 6−(2,4−ジクロロフェニルメトキシ)−3,4−ジヒドロ−1′−プロピルスピロ〔ナフタレン−2(1H),2′−ピペリジン〕 塩酸塩]",0.067 µM,–,0.19 µM,–,–
"NC(=O)CN1CCCCC12CCc1cc(OCc3ccc(F)cc3)ccc1C2 (centres unmarked) [実施例9−32, {6−(4−フルオロフェニルメトキシ−3,4−ジヒドロスピロ〔ナフタレン−2(1H),2′−ピペリジン〕}−1′−イルアセトアミド 塩酸塩]",–,–,–,0.53 µM,–
"COc1ccc2c(c1)CCC1(CCCCN1CCCCN1C(=O)c3ccccc3C1=O)C2 (centres unmarked) [実施例5−11, 3,4−ジヒドロ−6−メトキシ−1′−(4−フタルイミドブチル)スピロ〔ナフタレン−2(1H),2′−ピペリジン〕 塩酸塩]",0.5 µM,–,0.0045 µM,–,–
"CCCN1CCCCC12CCc1cc(OCc3ccccc3OC)ccc1C2 (centres unmarked) [実施例9−23, 3,4−ジヒドロ−6−(2−メトキシフェニルメトキシ)−1′−プロピルスピロ〔ナフタレン−2(1H),2′−ピペリジン〕 塩酸塩]",–,–,–,2.83 µM,–
"CCCN1CCCCC12CCc1cc(OCc3ccccc3F)ccc1C2 (centres unmarked) [実施例9−19, 6−(2−フルオロフェニルメトキシ)−3,4−ジヒドロ−1′−プロピルスピロ〔ナフタレン−2(1H),2′−ピペリジン〕 塩酸塩]",0.09 µM,–,0.8 µM,0.89 µM,–
"CCCN1CCCCC12CCc1cc(OCCc3ccccc3)ccc1C2 (centres unmarked) [実施例9−16, 3,4−ジヒドロ−6−(2−フェニルエトキシ)−1′−プロピルスピロ〔ナフタレン−2(1H),2′−ピペリジン〕 2塩酸塩]",–,–,–,0.59 µM,–
"CCCN1CCCCC12CCc1cc(OCc3ccccc3Cl)ccc1C2 (centres unmarked) [実施例9−6, 6−(2−クロロフェニルメトキシ)−3,4−ジヒドロ−1′−プロピルスピロ〔ナフタレン−2(1H),2′−ピペリジン〕 塩酸塩]",–,–,–,2.51 µM,–
"CCCN1CCCCC12CCc1cc(OCc3cccc(C#N)c3)ccc1C2 (centres unmarked) [実施例9−9, 6−(3−シアノフェニルメトキシ)−3,4−ジヒドロ−1′−プロピルスピロ〔ナフタレン−2(1H),2′−ピペリジン〕 塩酸塩]",0.062 µM,–,0.28 µM,–,–
"COc1ccc2c(c1)CC[C@@]1(CCCCN1CCN1CCN(c3cccc(C(F)(F)F)c3)CC1)C2 [実施例30−2, (S)−(−)−1’−〔2−4−(3−トリフルオロメチルフェニル)ピペラジン−1−イル)エチル〕−3,4−ジヒドロ−6−メトキシスピロ〔ナフタレン−2(1H),2’−ピペリジン〕 2塩酸塩]",0.28 µM,–,0.0095 µM,–,–
"CCCN1CCCCC12CCc1cc(OCc3ccc(Cl)cc3)ccc1C2 (centres unmarked) [実施例9−8, 6−(4−クロロフェニルメトキシ)−3,4−ジヒドロ−1′−プロピルスピロ〔ナフタレン−2(1H),2′−ピペリジン〕 塩酸塩]",0.035 µM,–,0.18 µM,–,–
"COc1ccc2c(c1)CCC1(CCCCN1CCOc1ccccc1)C2 (centres unmarked) [実施例5−10, 3,4−ジヒドロ−6−メトキシ−1′−(2−フェノキシエチル)スピロ〔ナフタレン−2(1H),2′−ピペリジン〕 塩酸塩]",0.83 µM,88%,0.0096 µM,–,–
"CCCN1CCCCC12CCc1cc(OCc3ccsc3)ccc1C2 (centres unmarked) [実施例9−45, 3,4−ジヒドロ−1′−プロピル−6−(3−チエニルメトキシ)スピロ〔ナフタレン−2(1H),2′−ピペリジン〕 塩酸塩]",–,–,–,–,0.066 µM
